Test results from patent publication US5318989A, “Cytotoxic bicyclo [7.3.1.]tridec-4-ene-2,6-diyne compounds and process for the preparation thereof” (Bristol-Myers Squibb Company, priority 1992, dated 1994).
Values after ≈ are worked out from the molar mass of the structure shown. Values joined by “and” are separate entries in the source; they are usually repeats but may differ in a detail not shown here. Identical values can stand only once. Like-named read-outs stand apart in the source and are kept apart here.

What was measured:
[1] = system: HCT/VP35 human colon tumor cell line (etoposide-resistant); assay: In vitro cytotoxicity assay; format: cell-based; details: three determinations
Experimental: (§1) Compound of Example 4 was evaluated in vitro against three human colon tumor cell lines: HCT-116, HCT/VM46, and HCT/VP35; the latter two are resistant to teniposide and etoposide, respectively. The in vitro cytotoxicity assay involved growing tumor cells on microtitre plates employing established tissue culture methods. The concentration of the test compound required to inhibit cell growth by 50% (IC50) was then determined by four-fold serial dilution technique. In the experiment, etoposide and teniposide were included as positive controls.

[2] = system: HCT-116 human colon tumor cell line; assay: In vitro cytotoxicity assay; format: cell-based; details: three determinations
Experimental: as §1

[3] = system: HCT/VM46 human colon tumor cell line (teniposide-resistant); assay: In vitro cytotoxicity assay; format: cell-based; details: three determinations
Experimental: as §1

[4] = system: P388 leukemia; assay: In vivo activity against transplantable murine P388 leukemia in CDF1 mice; details: for Survival d.5: day 5; for Med. Survival Time / % T/C: intraperitoneal; for Med. Survival Time: 5 consecutive days from day 1, control 11 d; for % T/C: 5 consecutive days, 125 or greater is significant
Experimental: The compound of Example 4 was also evaluated against transplantable murine P388 leukemia. CDF1 mice were implanted intraperitoneally with a tumor inoculum of 10^6 cells of P388 leukemia and treated with various doses of the test compound Six mice were used for each dose level and 10 mice were treated with saline to serve as control. The test compound was administered intraperitoneally on 5 consecutive days starting on day 1 after tumor implantation. Antitumor activity is expressed as % T/C which is the ratio of mean survival time (MST) for the drug-treated group to the MST of saline-treated control group.
A compound showing a % T/C of 125 or greater is considered to have significant antitumor activity.

[5] = system: DNA; details: J. Org. Chem. 1989, 54:2781-2783; J. Am. Chem. Soc. 1989, 111:7638-7641; cited from earlier work
[6] = Homo sapiens, HCT/VP35, HCT/VP35, read-out: IC50
[7] = Homo sapiens, HCT-116, HCT-116, read-out: IC50

COc1cc([C@@H]2c3cc4c(cc3[C@@H](O[C@@H]3O[C@@H]5CO[C@@H](c6cccs6)O[C@H]5[C@H](O)[C@H]3O)[C@H]3COC(=O)[C@H]23)OCO4)cc(OC)c1O [Teniposide]
IC50 ([1]; HCT/VP35): 0.091 µg/mL and 0.111 µg/mL
IC50 [1, 6]: 0.084 µg/mL (≈ 0.128 µM)
IC50 ([2]; HCT-116): 0.088 µg/mL and 0.083 µg/mL
IC50 [2, 7]: 0.077 µg/mL (≈ 0.117 µM)
IC50 ([3]; Homo sapiens, read-out: IC50): 0.313 µg/mL (≈ 0.477 µM)
IC50 [3]: 0.237 µg/mL and 0.236 µg/mL

O=C(OC1C#CC=CC#CC2(O)CCC=C1C2=O)c1cnc2ccccc2n1 (centres unmarked) [Example 6]
mouse surviving on day 31 ([4]; 20 mg/kg/dose, day 31): one
maximum %T/C ([4]; at 20 mg/kg/dose, same protocol): 235%

1-Hydroxy-8-[[(2-quinoxolyamino)carbonyl]oxy]-bicyclo[7.3.1]trideca-4,7-diene-2,6-divn-13-one [Example 8]
max. %T/C ([4]; at 15 mg/kg/dose, same protocol): 145%

O=C1C2=CCCC1(O)C#CC=CC#CC2O (centres unmarked) [Example 4, 1,8-Dihydroxy-bicyclo7.3.1]trideca-4,9-diene-2,6-divn-13-one]
Survival d.5 ([4]; 1 mg/kg/dose): 6/6
Med. Survival Time ([4]; 1 mg/kg/dose): 13 days
% T/C ([4]; 1 mg/kg/dose): 118%
Survival d.5 ([4]; 2 mg/kg/dose): 6/6
Med. Survival Time ([4]; 2 mg/kg/dose): 16.5 days
% T/C ([4]; 2 mg/kg/dose): 150%
Survival d.5 ([4]; 4 mg/kg/dose): 6/6
Med. Survival Time ([4]; 4 mg/kg/dose): 20.0 days
% T/C ([4]; 4 mg/kg/dose): 182%
Survival d.5 ([4]; 8 mg/kg/dose): 6/6
number of surviving mice on day 39 ([4]; 8 mg/kg/dose, day 39): 4 mice
Med. Survival Time ([4]; 8 mg/kg/dose): > 39 days
% T/C ([4]; 8 mg/kg/dose): > 355%
Survival d.5 ([4]; 16 mg/kg/dose): 6/6
Med. Survival Time ([4]; 16 mg/kg/dose): 9.5 days
% T/C ([4]; 16 mg/kg/dose): 86%
Survival d.5 ([4]; 32 mg/kg/dose): 6/6
Med. Survival Time ([4]; 32 mg/kg/dose): 7 days
% T/C ([4]; 32 mg/kg/dose): 64%
activity against P388 leukemia ([4]; conclusion from Table II): high activity against P388 leukemia
IC50 ([1]; HCT/VP35): 0.042 µg/mL and 0.046 µg/mL and 0.072 µg/mL
IC50 ([2]; HCT-116): 0.037 µg/mL and 0.043 µg/mL and < 0.031 µg/mL
IC50 [3]: < 0.031 µg/mL and 0.047 µg/mL

O=C1C2=CCCC1(O)C#C/C=C\C#CC2 (centres unmarked) [Example 15, 1-Hydroxy-bicylco[7.3.1]trideca-4,9-diene-2,6-diyne-13-one]
max. %T/C ([4]; at 40 mg/kg/dose, same protocol): 230%

COc1cc([C@@H]2c3cc4c(cc3[C@@H](O[C@@H]3O[C@@H]5CO[C@@H](C)O[C@H]5[C@H](O)[C@H]3O)[C@H]3COC(=O)[C@H]23)OCO4)cc(OC)c1O [Etoposide]
IC50 ([1]; HCT/VP35): 6.29 µg/mL and 6.75 µg/mL
IC50 [1, 6]: 5.14 µg/mL (≈ 8.73 µM)
IC50 ([2]; HCT-116): 0.128 µg/mL and 0.140 µg/mL
IC50 [2, 7]: 0.101 µg/mL (≈ 0.172 µM)

O=C1CC2C(=O)C(O)(C#CC=CC#CC2O)C1 (centres unmarked) [1,8-dihydroxy-bicyclo[7.3.1]tridec-4-ene-2,6-diyn-11,13-dione]
DNA cleavage in vitro [5]: shown to cleave DNA in vitro
